These results are taken from patent US20060234977A1, “Antiviral compostion comprising a sulphated glucose polymer and a bacteriostatic agent” (priority 2003, published 2006).

One test deals with HIV. Briefly: Activity against HIV and other sexually transmitted diseases. The settings on record: by comparison with dextrin 2- and 6-sulphates.

Dextrin 3-sulphate [Example 1]: in the test on HIV, the “activity against HIV and other sexually transmitted diseases (STDs)” value is on record as “relatively poor activity”.

Turning to dextrin sulphate, in “Spermicidal activity”, the spermicidal activity entry is recorded as “little or no spermicidal activity”.
